Legend:
CSR = target: T1, CSR (Homo sapiens, UniProt P41180); assay: Cell uptake and specific blocking assays in Hcc827 cells; conditions: blocker 100 μM
T1 sequence (P41180 20-1078): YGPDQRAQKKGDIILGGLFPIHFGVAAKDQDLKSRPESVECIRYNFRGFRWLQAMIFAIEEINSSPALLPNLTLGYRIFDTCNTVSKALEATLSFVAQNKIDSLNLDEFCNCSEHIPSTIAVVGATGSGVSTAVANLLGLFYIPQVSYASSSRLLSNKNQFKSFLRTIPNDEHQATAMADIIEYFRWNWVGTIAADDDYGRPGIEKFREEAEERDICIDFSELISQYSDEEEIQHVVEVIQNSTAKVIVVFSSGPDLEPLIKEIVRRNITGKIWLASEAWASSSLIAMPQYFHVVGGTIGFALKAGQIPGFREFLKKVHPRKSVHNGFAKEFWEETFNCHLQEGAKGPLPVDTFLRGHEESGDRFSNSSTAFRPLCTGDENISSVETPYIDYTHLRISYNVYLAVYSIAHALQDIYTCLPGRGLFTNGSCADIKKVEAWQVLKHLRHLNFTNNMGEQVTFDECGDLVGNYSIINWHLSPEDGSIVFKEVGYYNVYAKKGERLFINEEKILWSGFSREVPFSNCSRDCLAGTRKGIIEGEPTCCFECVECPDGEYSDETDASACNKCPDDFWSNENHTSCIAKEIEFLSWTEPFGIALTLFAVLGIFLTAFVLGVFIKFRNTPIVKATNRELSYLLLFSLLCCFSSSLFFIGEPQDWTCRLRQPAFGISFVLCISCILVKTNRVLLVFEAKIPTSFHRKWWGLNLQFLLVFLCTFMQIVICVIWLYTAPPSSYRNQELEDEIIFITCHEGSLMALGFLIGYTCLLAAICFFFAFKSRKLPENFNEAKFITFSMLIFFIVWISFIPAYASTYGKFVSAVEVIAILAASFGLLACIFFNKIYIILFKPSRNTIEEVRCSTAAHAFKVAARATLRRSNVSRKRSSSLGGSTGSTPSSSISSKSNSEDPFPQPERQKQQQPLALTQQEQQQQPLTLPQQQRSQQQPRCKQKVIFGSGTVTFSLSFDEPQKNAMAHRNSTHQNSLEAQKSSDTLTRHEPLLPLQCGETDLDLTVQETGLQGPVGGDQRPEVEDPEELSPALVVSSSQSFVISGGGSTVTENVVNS

[1] = In vivo acute toxicity study with overdose of cold standard; parameters: species or system JAX Swiss Outbred mice; conditions: for ALP (alkaline phosphatase) / ALT (alanine aminotransferase) / AST (aminotransferase) / BUN (blood urea nitrogen) / creatinine: mice plasma
Method: In vivo Toxicity study. An In vivo acute toxicity study of [^19F]F-cinacalcet was carried out in JAX Swiss Outbred mice. The mice were injected intravenously with an overdose of cold standard [^19F]F-cinacalcet (57.6 μg, ˜1000 times greater than the radiotracer [^18F]F-cinacalcet dose). Plasma samples were collected and analyzed at various time points. […] Alkaline phosphatase (ALP) and alanine transaminase (ALT) are two important biological indicators associated with liver function. […] It is very common to see a transient increase in blood AST after drug administration, which usually has no actual pathological significance. Blood urea nitrogen (BUN) and creatinine are two critical indicators for evaluating kidney function. There were no significant changes in BUN and creatinine levels in the mice injected with [^19F]F-cinacalcet compared with the vehicle controls. In addition, histopathological staining was performed on the kidney, liver, and heart tissues collected at different time points. […] The basic structures of the glomerulus, renal tubulus, liver lobule central vein, and cardiac muscle fibers remained intact.

With C[C@@H](NCCCc1cccc(C(F)(F)F)c1)c1ccc(F)c2ccccc12 [[^19F]F-ZW-cinacalcet] the “Block of [18F]F-ZW-cinacalcet uptake” value (CSR; 20 min post incubation) was 89.9%, the “Block of [18F]F-ZW-cinacalcet uptake” value (CSR; other time points) was “More than 87%” and the “ALP (alkaline phosphatase)” value ([1]; 2 weeks after overdose) was 80.33 ± 9.00 U/L. The “ALT (alanine aminotransferase)” value ([1]; 2 weeks after overdose) was 24.67 ± 0.94 U/L, the “AST (aminotransferase)” value ([1]; 2 weeks after overdose) was 82 ± 28.6 U/L and the “BUN (blood urea nitrogen)” value ([1]; 2 weeks after overdose) was 18 ± 0.82 mg/dL. For the same molecule, the creatinine ([1]; 2 weeks after overdose) was 0.18 ± 0.01 mg/dL, the “ALP (alkaline phosphatase)” value ([1]; 1 h after overdose) was 87.67 ± 13.70 U/L and the “ALT (alanine aminotransferase)” value ([1]; 1 h after overdose) was 29.33 ± 3.10 U/L. The “AST (aminotransferase)” value ([1]; 1 h after overdose) was 82.67 ± 21.68 U/L, the “BUN (blood urea nitrogen)” value ([1]; 1 h after overdose) was 17 ± 1.41 mg/dL and the creatinine ([1]; 1 h after overdose) was 0.24 ± 0.09 mg/dL. For the same molecule, the “ALP (alkaline phosphatase)” value ([1]; 24 h after overdose) was 54 ± 9.09 U/L, the “ALT (alanine aminotransferase)” value ([1]; 24 h after overdose) was 31.33 ± 9.10 U/L and the “AST (aminotransferase)” value ([1]; 24 h after overdose) was 104.67 ± 45.38 U/L. The “BUN (blood urea nitrogen)” value ([1]; 24 h after overdose) was 18.33 ± 1.25 mg/dL, the creatinine ([1]; 24 h after overdose) was 0.25 ± 0.11 mg/dL and the Acute toxicity ([1]; mice, i.v. overdose 57.6 μg) was “no acute toxicity”. For the same molecule, the “Mortality and health changes” value ([1]; mice, i.v. overdose 57.6 μg, study period) was “No animal deaths and significant health changes were observed” and the “Histopathology of kidney, liver and heart (HE staining)” value ([1]; mice, i.v. overdose, different time points) was “no obvious pathological changes”.

From patent publication US20250057994A1, “LABELED COMPOUNDS AND CALCIUM SENSING RECEPTOR LIGANDS FOR IMAGING AND USES THEREOF” (The University of North Carolina at Chapel Hill, priority 2021, published 2025)
